{
  "source": "PubChem BioAssay (NCI)",
  "assay_in_all_cases": "DTP human tumour cell line panel, 48 h",
  "key": {"NCI-H23 lung": {"tested_on": "NCI-H23 lung"}, "NCI-H460 lung": {"tested_on": "NCI-H460 lung"}, "NCI-H522 lung": {"tested_on": "NCI-H522 lung"}, "NCI/ADR-RES ovarian": {"tested_on": "NCI/ADR-RES ovarian"}, "OVCAR-3 ovarian": {"tested_on": "OVCAR-3 ovarian"}, "OVCAR-4 ovarian": {"tested_on": "OVCAR-4 ovarian"}, "OVCAR-5 ovarian": {"tested_on": "OVCAR-5 ovarian"}, "OVCAR-8 ovarian": {"tested_on": "OVCAR-8 ovarian"}, "PC-3 prostate": {"tested_on": "PC-3 prostate"}, "RXF 393 renal": {"tested_on": "RXF 393 renal"}, "SF-268 CNS": {"tested_on": "SF-268 CNS"}, "SF-295 CNS": {"tested_on": "SF-295 CNS"}, "SF-539 CNS": {"tested_on": "SF-539 CNS"}, "SK-MEL-2 melanoma": {"tested_on": "SK-MEL-2 melanoma"}, "SK-MEL-28 melanoma": {"tested_on": "SK-MEL-28 melanoma"}, "SK-MEL-5 melanoma": {"tested_on": "SK-MEL-5 melanoma"}, "SK-OV-3 ovarian": {"tested_on": "SK-OV-3 ovarian"}, "SN12C renal": {"tested_on": "SN12C renal"}, "SNB-19 CNS": {"tested_on": "SNB-19 CNS"}, "SNB-75 CNS": {"tested_on": "SNB-75 CNS"}, "SR leukemia": {"tested_on": "SR leukemia"}, "SW-620 colon": {"tested_on": "SW-620 colon"}, "T-47D breast": {"tested_on": "T-47D breast"}, "TK-10 renal": {"tested_on": "TK-10 renal"}, "U251 CNS": {"tested_on": "U251 CNS"}, "UACC-257 melanoma": {"tested_on": "UACC-257 melanoma"}, "UACC-62 melanoma": {"tested_on": "UACC-62 melanoma"}, "UO-31 renal": {"tested_on": "UO-31 renal"}},
  "note": "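Assay format: 96-well plates, 48-hour exposure. GI50 = concentration required for 50% inhibition of growth. TGI: total growth inhibition.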",
  "data": [
    {"smiles": "C=CCc1c(O)c(C(=O)/C=C/c2ccc(Cl)cc2)c(OC)c2ccoc12", "values": [
      {"measurement": "GI50", "setting": "NCI-H23 lung", "value": 2.78, "unit": "µM"},
      {"measurement": "TGI", "setting": "NCI-H23 lung", "value": 11.6, "unit": "µM"},
      {"measurement": "GI50", "setting": "NCI-H460 lung", "value": 3.2, "unit": "µM"},
      {"measurement": "TGI", "setting": "NCI-H460 lung", "value": 12.1, "unit": "µM"},
      {"measurement": "GI50", "setting": "NCI-H522 lung", "value": 1.88, "unit": "µM"},
      {"measurement": "TGI", "setting": "NCI-H522 lung", "value": 5.71, "unit": "µM"},
      {"measurement": "GI50", "setting": "NCI/ADR-RES ovarian", "value": 2.23, "unit": "µM"},
      {"measurement": "TGI", "setting": "NCI/ADR-RES ovarian", "value": 5.86, "unit": "µM"},
      {"measurement": "GI50", "setting": "OVCAR-3 ovarian", "value": 1.97, "unit": "µM"},
      {"measurement": "TGI", "setting": "OVCAR-3 ovarian", "value": 4.41, "unit": "µM"},
      {"measurement": "GI50", "setting": "OVCAR-4 ovarian", "value": 2.77, "unit": "µM"},
      {"measurement": "TGI", "setting": "OVCAR-4 ovarian", "value": 13.1, "unit": "µM"},
      {"measurement": "GI50", "setting": "OVCAR-5 ovarian", "value": 2.8, "unit": "µM"},
      {"measurement": "TGI", "setting": "OVCAR-5 ovarian", "value": 9.71, "unit": "µM"},
      {"measurement": "GI50", "setting": "OVCAR-8 ovarian", "value": 3.04, "unit": "µM"},
      {"measurement": "TGI", "setting": "OVCAR-8 ovarian", "value": 12, "unit": "µM"},
      {"measurement": "GI50", "setting": "PC-3 prostate", "value": 3.81, "unit": "µM"},
      {"measurement": "TGI", "setting": "PC-3 prostate", "value": 15.6, "unit": "µM"},
      {"measurement": "GI50", "setting": "RXF 393 renal", "value": 1.72, "unit": "µM"},
      {"measurement": "TGI", "setting": "RXF 393 renal", "value": 3.6, "unit": "µM"},
      {"measurement": "GI50", "setting": "SF-268 CNS", "value": 3.25, "unit": "µM"},
      {"measurement": "TGI", "setting": "SF-268 CNS", "value": 12, "unit": "µM"},
      {"measurement": "GI50", "setting": "SF-295 CNS", "value": 2.77, "unit": "µM"},
      {"measurement": "TGI", "setting": "SF-295 CNS", "value": 9.56, "unit": "µM"},
      {"measurement": "GI50", "setting": "SF-539 CNS", "value": 1.79, "unit": "µM"},
      {"measurement": "TGI", "setting": "SF-539 CNS", "value": 3.85, "unit": "µM"},
      {"measurement": "GI50", "setting": "SK-MEL-2 melanoma", "value": 3.97, "unit": "µM"},
      {"measurement": "TGI", "setting": "SK-MEL-2 melanoma", "value": 14.7, "unit": "µM"},
      {"measurement": "GI50", "setting": "SK-MEL-28 melanoma", "value": 2.32, "unit": "µM"},
      {"measurement": "TGI", "setting": "SK-MEL-28 melanoma", "value": 5.53, "unit": "µM"},
      {"measurement": "GI50", "setting": "SK-MEL-5 melanoma", "value": 2.07, "unit": "µM"},
      {"measurement": "TGI", "setting": "SK-MEL-5 melanoma", "value": 5.18, "unit": "µM"},
      {"measurement": "GI50", "setting": "SK-OV-3 ovarian", "value": 5.96, "unit": "µM"},
      {"measurement": "TGI", "setting": "SK-OV-3 ovarian", "value": 19.2, "unit": "µM"},
      {"measurement": "GI50", "setting": "SN12C renal", "value": 4.96, "unit": "µM"},
      {"measurement": "TGI", "setting": "SN12C renal", "value": 16.9, "unit": "µM"},
      {"measurement": "GI50", "setting": "SNB-19 CNS", "value": 2.85, "unit": "µM"},
      {"measurement": "TGI", "setting": "SNB-19 CNS", "value": 8.15, "unit": "µM"},
      {"measurement": "GI50", "setting": "SNB-75 CNS", "value": 2.01, "unit": "µM"},
      {"measurement": "TGI", "setting": "SNB-75 CNS", "value": 9.11, "unit": "µM"},
      {"measurement": "GI50", "setting": "SR leukemia", "value": 2.77, "unit": "µM"},
      {"measurement": "TGI", "setting": "SR leukemia", "value": 9.11, "unit": "µM"},
      {"measurement": "GI50", "setting": "SW-620 colon", "value": 2.56, "unit": "µM"},
      {"measurement": "TGI", "setting": "SW-620 colon", "value": 6.86, "unit": "µM"},
      {"measurement": "GI50", "setting": "T-47D breast", "value": 3.29, "unit": "µM"},
      {"measurement": "TGI", "setting": "T-47D breast", "value": 19, "unit": "µM"},
      {"measurement": "GI50", "setting": "TK-10 renal", "value": 3.62, "unit": "µM"},
      {"measurement": "TGI", "setting": "TK-10 renal", "value": 12.9, "unit": "µM"},
      {"measurement": "GI50", "setting": "U251 CNS", "value": 2.3, "unit": "µM"},
      {"measurement": "TGI", "setting": "U251 CNS", "value": 5.87, "unit": "µM"},
      {"measurement": "GI50", "setting": "UACC-257 melanoma", "value": 2.39, "unit": "µM"},
      {"measurement": "TGI", "setting": "UACC-257 melanoma", "value": 6.62, "unit": "µM"},
      {"measurement": "GI50", "setting": "UACC-62 melanoma", "value": 2.88, "unit": "µM"},
      {"measurement": "TGI", "setting": "UACC-62 melanoma", "value": 10.1, "unit": "µM"},
      {"measurement": "GI50", "setting": "UO-31 renal", "value": 2.88, "unit": "µM"},
      {"measurement": "TGI", "setting": "UO-31 renal", "value": 13.3, "unit": "µM"}
    ]}
  ]
}
